The text below walks through data of US20120225862A1, “HETEROARYL BENZAMIDES, COMPOSITIONS AND METHODS OF USE” (AUCKLAND UNIVSERVICES LIMITED, priority 2009, published 2012).

The subject of data set [1] is RCC4. Nature of the data set: XTT IC50 / viability assay, RCC4 cells. Format: cell-based, human. The settings on record: Homo sapiens, RCC4, 96 h; XTT assay, four days. An outline of the steps: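 RCC4 parental and VHL-reintroduced RCC4/VHL cells (DMEM, 10% FCS) treated with serially diluted drug for four days. Viability by XTT (0.3 mg/mL) with N-methyl dibenzopyrazine methyl sulfate, 1–2 h at 37 °C, absorbance 450 nm; IC50 by linear interpolation.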

Turning to `Cc1cc(C)cc(C(=O)NCc2ccc(C(=O)Nc3cccnc3)cc2)c1` [Example 87, 3,5-Dimethyl-N-(4-(pyridin-3-ylcarbamoyl)benzyl)benzamide], the melting point was in the range of 241 to 243 °C. Further, in data set [1], the IC50 was greater than 20 µM.

For the molecule `O=C(Nc1nccs1)c1ccc(CNS(=O)(=O)c2ccccc2)cc1` [Example 4, 4-(Phenylsulfonamidomethyl)-N-(thiazol-2-yl)benzamide], the melting point is 189 to 191 °C. The molecule also returned a half-maximal inhibitory concentration (IC50) in data set [1] greater than 20 µM.

For the molecule `O=C(Nc1cnccn1)c1ccc(CNS(=O)(=O)c2ccccc2)cc1` [Example 8, 4-(Phenylsulfonamidomethyl)-N-(pyrazin-2-yl)benzamide], the melting point is 200 to 202 °C. In addition, in data set [1], the IC50 was greater than 20 µM.

`CC(C)(C)c1ccc(S(=O)(=O)NCc2ccc(C(=O)Nc3cncc(Cl)c3)cc2)cc1` [Example 115, 4-({[(4-tert-Butylphenyl)sulfonyl]amino}methyl)-N-(5-chloro-3-pyridinyl)benzamide] had a melting point of 217 to 219 °C. In data set [1], this molecule registered a 50% inhibitory concentration (IC50) greater than 20 µM.

`O=C(Nc1cnc2ccccc2c1)c1ccc(CNS(=O)(=O)c2ccccc2)cc1` [Example 6, 4-(Phenylsulfonamidomethyl)-N-(quinolin-3-yl)benzamide] displayed a melting point of 186 to 188 °C. Further, the concentration for half-maximal inhibition (IC50) in data set [1] was greater than 20 µM.

In turn, `COc1ccc(NC(=O)c2ccc(CNS(=O)(=O)c3ccc(C(C)(C)C)cc3)cc2)cn1` [Example 110, 4-({[(4-tert-Butylphenyl)sulfonyl]amino}methyl)-N-(6-methoxy-3-pyridinyl)benzamide] yielded a melting point of 238 to 240 °C. Further, the half-maximal inhibitory concentration (IC50) in data set [1] is greater than 20 µM.

Molecule `CC(C)(C)c1ccc(S(=O)(=O)NCc2ccc(C(=O)Nc3ccc(F)nc3)cc2)cc1` [Example 120, 4-({[(4-tert-Butylphenyl)sulfonyl]amino}methyl)-N-(6-fluoro-3-pyridinyl)benzamide] had a melting point of 254 to 257 °C. Moreover, in data set [1], the IC50 is greater than 20 µM.

Turning to `CC(C)(C)c1ccc(S(=O)(=O)NCc2ccc(C(=O)Nc3cccnc3[N+](=O)[O-])cc2)cc1` [Example 116, 4-({[(4-tert-Butylphenyl)sulfonyl]amino}methyl)-N-(2-nitro-3-pyridinyl)benzamide], the melting point lay in the range of 191 to 193 °C. The same molecule had an IC50 in data set [1] greater than 20 µM.

For the molecule `O=C(Nc1cccnc1)c1ccc(CNS(=O)(=O)c2ccc(C#CCO)cc2)cc1` [Example 103, 4-[({[4-(3-Hydroxy-1-propynyl)phenyl]sulfonyl}amino)methyl]-N-(3-pyridinyl)benzamide], the melting point was 207 to 210 °C. This molecule gave a 50% inhibitory concentration (IC50) in data set [1] greater than 20 µM.

For `CCCN(Cc1ccc(C(=O)Nc2cccnc2)cc1)S(=O)(=O)c1ccc(C(C)(C)C)cc1` [Example 140, 4-{[[(4-tert-Butylphenyl)sulfonyl](propyl)amino]methyl}-N-(3-pyridinyl)benzamide], the melting point was in the range of 177 to 179 °C. This molecule also had a 50% inhibitory concentration (IC50) in data set [1] greater than 20 µM.

`Cc1ccncc1NC(=O)c1ccc(CNS(=O)(=O)c2ccc(C(C)(C)C)cc2)cc1` [Example 114, 4-({[(4-tert-Butylphenyl)sulfonyl]amino}methyl)-N-(4-methyl-3-pyridinyl)benzamide] displayed a melting point of 183 to 185 °C. Moreover, the half-maximal inhibitory concentration (IC50) in data set [1] was greater than 20 µM.

In turn, `Cc1ncccc1NC(=O)c1ccc(CNS(=O)(=O)c2ccc(C(C)(C)C)cc2)cc1` [Example 108, 4-({[(4-tert-Butylphenyl)sulfonyl]amino}methyl)-N-(2-methyl-3-pyridinyl)benzamide] gave a melting point of 188 to 190 °C. In data set [1], this molecule displayed a 50% inhibitory concentration (IC50) greater than 20 µM.

Consider `O=C(Nc1cccnc1)c1ccc(CNS(=O)(=O)c2ccc([N+](=O)[O-])cc2)cc1` [Example 51, 4-((4-Nitrophenylsulfonamido)methyl)-N-(pyridin-3-yl)benzamide], for which the melting point fell in the range of 241 to 243 °C. In data set [1], this molecule registered a half-inhibitory concentration (IC50) greater than 20 µM.

The molecule `CC(C)(C)c1ccc(S(=O)(=O)NCc2ccc(C(=O)Nc3cncc(F)c3)cc2)cc1` [Example 121, 4-({[(4-tert-Butylphenyl)sulfonyl]amino}methyl)-N-(5-fluoro-3-pyridinyl)benzamide] displayed a melting point of 214 to 217 °C. For the same molecule, the IC50 in data set [1] is greater than 20 µM.

`Cc1ccc(NC(=O)c2ccc(CNS(=O)(=O)c3ccc(C(C)(C)C)cc3)cc2)cn1` [Example 109, 4-({[(4-tert-Butylphenyl)sulfonyl]amino}methyl)-N-(6-methyl-3-pyridinyl)benzamide] yielded a melting point of 235 to 237 °C. For the same molecule, the half-maximal inhibitory concentration (IC50) in data set [1] was greater than 20 µM.

As to `COCCCc1ccc(S(=O)(=O)NCc2ccc(C(=O)Nc3cccnc3)cc2)cc1` [Example 101, 4-[({[4-(3-Methoxypropyl)phenyl]sulfonyl}amino)methyl]-N-(3-pyridinyl)benzamide], the melting point lay within 172 to 174 °C. Moreover, the IC50 in data set [1] fell in the range of 1 to 20 µM.

Molecule `O=C(Nc1ccc[n+]([O-])c1)c1ccc(CNS(=O)(=O)c2ccccc2)cc1` [Example 93, N-(1-Oxido-3-pyridinyl)-4-((phenylsulfonamido)methyl)-benzamide] gave a melting point of 230 to 231 °C. The molecule further gave an IC50 in data set [1] greater than 20 µM.

In turn, `O=C(Nc1cccc2ncccc12)c1ccc(CNS(=O)(=O)c2ccccc2)cc1` [Example 7, 4-(Phenylsulfonamidomethyl)-N-(quinolin-5-yl)benzamide] yielded a melting point of 198 to 201 °C. The molecule also gave an IC50 in data set [1] greater than 20 µM.

Take `CC(C)(C)c1ccc(S(=O)(=O)NCc2ccc(C(=O)Nc3ccc(Br)nc3)cc2)cc1` [Example 125, N-(6-Bromo-3-pyridinyl)-4-({[(4-tert-butylphenyl)sulfonyl]amino}methyl)benzamide]: the melting point lay within 242 to 244 °C. Besides, the half-maximal inhibitory concentration (IC50) in data set [1] is greater than 20 µM.

`CC(=O)Nc1ccc(NC(=O)c2ccc(CNS(=O)(=O)c3ccc(C(C)(C)C)cc3)cc2)cn1` [Example 119, N-[6-(Acetylamino)-3-pyridinyl]-4-({[(4-tert-butylphenyl)sulfonyl]amino}methyl)benzamide]: the melting point was 240 to 243 °C. The molecule also came in with a half-inhibitory concentration (IC50) in data set [1] greater than 20 µM.

Regarding `O=C(Nc1cccnc1)c1ccc(CNS(=O)(=O)c2ccccc2C(F)(F)F)cc1` [Example 15, N-(pyridin-3-yl)-4-((2-(trifluoromethyl)phenylsulfonamido)methyl)benzamide], the melting point was 234 to 237 °C. The same molecule gave a concentration for half-maximal inhibition (IC50) in data set [1] greater than 20 µM.

Molecule `O=C(Nc1ccncc1)c1ccc(CNS(=O)(=O)c2ccc(I)cc2)cc1` [Example 99] came in with a melting point of 270 to 273 °C. The molecule also had an IC50 in data set [1] greater than 20 µM.

For the molecule `Cc1cncc(NC(=O)c2ccc(CNS(=O)(=O)c3ccc(C(C)(C)C)cc3)cc2)c1` [Example 107, 4-({[(4-tert-Butylphenyl)sulfonyl]amino}methyl)-N-(5-methyl-3-pyridinyl)benzamide], the melting point was in the range of 189 to 191 °C. Further, the half-inhibitory concentration (IC50) in data set [1] was greater than 20 µM.

`CC(C)(C)c1ccc(S(=O)(=O)NCc2ccc(C(=O)Nc3ccc(C(F)(F)F)nc3)cc2)cc1` [Example 118, 4-({[(4-tert-Butylphenyl)sulfonyl]amino}methyl)-N-[6-(trifluoromethyl)-3-pyridinyl]benzamide] had a melting point of 249 to 252 °C. In data set [1], this molecule came in with an IC50 greater than 20 µM.

Molecule `COC(=O)c1ccccc1S(=O)(=O)NCc1ccc(C(=O)Nc2cccnc2)cc1` [Example 14, Methyl 2-(N-(4-(Pyridin-3-ylcarbamoyl)benzyl)sulfamoyl)benzoate] returned a melting point of 155 to 157 °C. In data set [1], this molecule had a 50% inhibitory concentration (IC50) greater than 20 µM.

`O=C(Nc1cc[nH]n1)c1ccc(CNS(=O)(=O)c2ccccc2)cc1` [Example 5, 4-(Phenylsulfonamidomethyl)-N-(1H-pyrazol-3-yl)benzamide] displayed a melting point of 180 to 182 °C. This molecule also had an IC50 in data set [1] greater than 20 µM.

On to `COc1ccc(C(=O)NCc2ccc(C(=O)Nc3cccnc3)cc2)cc1OC` [Example 88, 3,4-Dimethoxy-N-(4-(pyridin-3-ylcarbamoyl)benzyl)benzamide], for which the melting point lay in the range of 219 to 220 °C. This molecule also yielded a half-inhibitory concentration (IC50) in data set [1] greater than 20 µM.

In turn, `O=C(Nc1cccnc1)c1ccc(CNS(=O)(=O)c2ccc(-c3cccc(C(F)(F)F)c3)cc2)cc1` [Example 134, N-(3-Pyridinyl)-4-[({[3′-(trifluoromethyl)[1,1′-biphenyl]-4-yl]sulfonyl}amino)methyl]benzamide] displayed a melting point of 227 to 229 °C. The molecule also came in with a half-maximal inhibitory concentration (IC50) in data set [1] greater than 20 µM.

For `CC(C)(C)c1ccc(S(=O)(=O)NCc2ccc(C(=O)Nc3ccc(Cl)nc3)cc2)cc1` [Example 111, 4-({[(4-tert-Butylphenyl)sulfonyl]amino}methyl)-N-(6-chloro-3-pyridinyl)benzamide], the melting point lay within 251 to 253 °C. The IC50 in data set [1] is greater than 20 µM.

`COC(=O)CCc1ccc(S(=O)(=O)NCc2ccc(C(=O)Nc3cccnc3)cc2)cc1` [Example 41, Methyl 3-{4-[({4-[(3-Pyridinylamino)carbonyl]benzyl}amino)sulfonyl]phenyl}propanoate] showed a melting point of 181 to 182 °C. Besides, the concentration for half-maximal inhibition (IC50) in data set [1] is greater than 20 µM.

Molecule `Cc1c(Cl)cccc1S(=O)(=O)NCc1ccc(C(=O)Nc2cccnc2)cc1` [Example 68, 4-((3-Chloro-2-methylphenylsulfonamido)methyl)-N-(pyridin-3-yl)benzamide] gave a melting point of 218 to 221 °C. In data set [1], this molecule came in with a 50% inhibitory concentration (IC50) greater than 20 µM.

In turn, `COC(=O)c1ccc(S(=O)(=O)NCc2ccc(C(=O)Nc3cccnc3)cc2)cc1` [Example 47, Methyl 4-(N-(4-(Pyridin-3-ylcarbamoyl)benzyl)sulfamoyl)benzoate] displayed a melting point of 212 to 215 °C. Besides, the IC50 in data set [1] was greater than 20 µM.
